Data reported in ChEMBL document CHEMBL3044664, “Synthesis of coumarin-based 1,3,4-oxadiazol-2ylthio-N-phenyl/benzothiazolyl acetamides as antimicrobial and antituberculosis agents” (2013).
≈ marks a conversion by molar mass, not a printed value.

How the values were obtained:
Format in all cases: functional
[1] = system: Mycobacterium tuberculosis; test: Antitubercular activity against Mycobacterium tuberculosis H37Rv assessed as growth inhibition at MIC by Lowenstein-Jensen method
Staphylococcus aureus = test: Antibacterial activity against Staphylococcus aureus MTCC 96 assessed as growth inhibition by agar streak dilution method
Escherichia coli = test: Antibacterial activity against Escherichia coli MTCC 739 assessed as growth inhibition by agar streak dilution method
Aspergillus clavatus = test: Antifungal activity against Aspergillus clavatus MTCC 1323 assessed as growth inhibition by agar streak dilution method
Aspergillus fumigatus = test: Antifungal activity against Aspergillus fumigatus MTCC 343 assessed as growth inhibition by agar streak dilution method
Shigella flexneri = test: Antibacterial activity against Shigella flexneri MTCC 1457 assessed as growth inhibition by agar streak dilution method
Salmonella typhi = test: Antibacterial activity against Salmonella enterica subsp. enterica serovar Typhi MTCC 733 assessed as growth inhibition by agar streak dilution method
Candida albicans = test: Antifungal activity against Candida albicans MTCC 183 assessed as growth inhibition by agar streak dilution method
[2] = system: Mycobacterium tuberculosis; test: Antitubercular activity against Mycobacterium tuberculosis H37Rv assessed as growth inhibition by BACTEC MGIT method
Aspergillus niger = test: Antifungal activity against Aspergillus niger MTCC 282 assessed as growth inhibition by agar streak dilution method
Proteus vulgaris = test: Antibacterial activity against Proteus vulgaris MTCC 1771 assessed as growth inhibition by agar streak dilution method
Klebsiella pneumoniae = test: Antibacterial activity against Klebsiella pneumoniae MTCC 109 assessed as growth inhibition by agar streak dilution method
[3] = system: Mycobacterium tuberculosis; test: Antitubercular activity against Mycobacterium tuberculosis H37Rv assessed as growth inhibition by Lowenstein-Jensen method
Bacillus cereus = test: Antibacterial activity against Bacillus cereus MTCC 430 assessed as growth inhibition by agar streak dilution method
Pseudomonas aeruginosa = test: Antibacterial activity against Pseudomonas aeruginosa MTCC 741 assessed as growth inhibition by agar streak dilution method

With O=C(CSc1nnc(-c2cc3ccccc3oc2=O)o1)Nc1nc2ccc(I)cc2s1 the “growth inhibition (GI)” value [1] was 97%, the MIC (Staphylococcus aureus) was 100 µg/mL (≈ 178 µM) and the MIC (Escherichia coli) was 50 µg/mL (≈ 88.9 µM). For the same compound, the MIC (Aspergillus clavatus) was 100 µg/mL (≈ 178 µM), the MIC (Aspergillus fumigatus) was 100 µg/mL (≈ 178 µM) and the MIC (Shigella flexneri) was 100 µg/mL (≈ 178 µM). For the same compound, the MIC (Salmonella typhi) was 100 µg/mL (≈ 178 µM), the MIC (Candida albicans) was 100 µg/mL (≈ 178 µM) and the MIC [2] was > 6.25 µg/mL. The MIC (Aspergillus niger) was 100 µg/mL (≈ 178 µM), the MIC (Proteus vulgaris) was > 100 µg/mL and the MIC (Klebsiella pneumoniae) was 100 µg/mL (≈ 178 µM). The MIC [3] was 100 µg/mL (≈ 178 µM), the MIC (Bacillus cereus) was 100 µg/mL (≈ 178 µM) and the MIC (Pseudomonas aeruginosa) was > 100 µg/mL.
With O=C(CSc1nnc(-c2cc3ccccc3oc2=O)o1)Nc1nc2ccc([N+](=O)[O-])cc2s1 the “growth inhibition (GI)” value [1] was 96%, the MIC (Staphylococcus aureus) was 50 µg/mL (≈ 104 µM) and the MIC (Escherichia coli) was 100 µg/mL (≈ 208 µM). It also gave an MIC (Aspergillus clavatus) of 100 µg/mL (≈ 208 µM), an MIC (Aspergillus fumigatus) of 100 µg/mL (≈ 208 µM) and an MIC (Shigella flexneri) of 100 µg/mL (≈ 208 µM). For the same compound, the MIC (Salmonella typhi) was 100 µg/mL (≈ 208 µM), the MIC (Candida albicans) was 50 µg/mL (≈ 104 µM) and the MIC [2] was > 6.25 µg/mL. It also gave an MIC (Aspergillus niger) of 50 µg/mL (≈ 104 µM), an MIC (Proteus vulgaris) of 12.5 µg/mL (≈ 26 µM) and an MIC (Klebsiella pneumoniae) of 50 µg/mL (≈ 104 µM). The MIC [3] was 250 µg/mL (≈ 519 µM), the MIC (Bacillus cereus) was 100 µg/mL (≈ 208 µM) and the MIC (Pseudomonas aeruginosa) was 100 µg/mL (≈ 208 µM).
In the case of N#Cc1ccc2nc(NC(=O)CSc3nnc(-c4cc5ccccc5oc4=O)o3)sc2c1, the “growth inhibition (GI)” value [1] is reported as 98%, the MIC (Staphylococcus aureus) is reported as 25 µg/mL (≈ 54.2 µM) and the MIC (Escherichia coli) is reported as 50 µg/mL (≈ 108 µM). The MIC (Aspergillus clavatus) was 100 µg/mL (≈ 217 µM), the MIC (Aspergillus fumigatus) was > 100 µg/mL and the MIC (Shigella flexneri) was > 100 µg/mL. The MIC (Salmonella typhi) was 100 µg/mL (≈ 217 µM), the MIC (Candida albicans) was 50 µg/mL (≈ 108 µM) and the MIC [2] was > 6.25 µg/mL. The MIC (Aspergillus niger) was 100 µg/mL (≈ 217 µM), the MIC (Proteus vulgaris) was 100 µg/mL (≈ 217 µM) and the MIC (Klebsiella pneumoniae) was 25 µg/mL (≈ 54.2 µM). For the same compound, the MIC [3] was 100 µg/mL (≈ 217 µM), the MIC (Bacillus cereus) was 100 µg/mL (≈ 217 µM) and the MIC (Pseudomonas aeruginosa) was > 100 µg/mL.
For Cc1ccc2nc(NC(=O)CSc3nnc(-c4cc5ccccc5oc4=O)o3)sc2c1, the “growth inhibition (GI)” value [1] was 95%, the MIC (Staphylococcus aureus) was 100 µg/mL (≈ 222 µM) and the MIC (Escherichia coli) was > 100 µg/mL. The MIC (Aspergillus clavatus) was 100 µg/mL (≈ 222 µM), the MIC (Aspergillus fumigatus) was > 100 µg/mL and the MIC (Shigella flexneri) was > 100 µg/mL. For the same compound, the MIC (Salmonella typhi) was 100 µg/mL (≈ 222 µM), the MIC (Candida albicans) was 100 µg/mL (≈ 222 µM) and the MIC [2] was > 6.25 µg/mL. The MIC (Aspergillus niger) was > 100 µg/mL, the MIC (Proteus vulgaris) was 100 µg/mL (≈ 222 µM) and the MIC (Klebsiella pneumoniae) was 100 µg/mL (≈ 222 µM). It also gave an MIC [3] of 200 µg/mL (≈ 444 µM), an MIC (Bacillus cereus) of 100 µg/mL (≈ 222 µM) and an MIC (Pseudomonas aeruginosa) of 100 µg/mL (≈ 222 µM).
In the case of COc1ccc2nc(NC(=O)CSc3nnc(-c4cc5ccccc5oc4=O)o3)sc2c1, the “growth inhibition (GI)” value [1] is reported as 98%, the MIC (Staphylococcus aureus) is reported as 25 µg/mL (≈ 53.6 µM) and the MIC (Escherichia coli) is reported as 100 µg/mL (≈ 214 µM). For the same compound, the MIC (Aspergillus clavatus) was 25 µg/mL (≈ 53.6 µM), the MIC (Aspergillus fumigatus) was 100 µg/mL (≈ 214 µM) and the MIC (Shigella flexneri) was 50 µg/mL (≈ 107 µM). The MIC (Salmonella typhi) was 25 µg/mL (≈ 53.6 µM), the MIC (Candida albicans) was 50 µg/mL (≈ 107 µM) and the MIC [2] was > 6.25 µg/mL. The MIC (Aspergillus niger) was 50 µg/mL (≈ 107 µM), the MIC (Proteus vulgaris) was 25 µg/mL (≈ 53.6 µM) and the MIC (Klebsiella pneumoniae) was 100 µg/mL (≈ 214 µM). For the same compound, the MIC [3] was 25 µg/mL (≈ 53.6 µM), the MIC (Bacillus cereus) was 50 µg/mL (≈ 107 µM) and the MIC (Pseudomonas aeruginosa) was 50 µg/mL (≈ 107 µM).
CCOc1ccc2nc(NC(=O)CSc3nnc(-c4cc5ccccc5oc4=O)o3)sc2c1 was tested, and the “growth inhibition (GI)” value [1] was 97%, the MIC (Staphylococcus aureus) was 12.5 µg/mL (≈ 26 µM) and the MIC (Escherichia coli) was 50 µg/mL (≈ 104 µM). For the same compound, the MIC (Aspergillus clavatus) was 50 µg/mL (≈ 104 µM), the MIC (Aspergillus fumigatus) was 100 µg/mL (≈ 208 µM) and the MIC (Shigella flexneri) was 100 µg/mL (≈ 208 µM). For the same compound, the MIC (Salmonella typhi) was 12.5 µg/mL (≈ 26 µM), the MIC (Candida albicans) was 100 µg/mL (≈ 208 µM) and the MIC [2] was > 6.25 µg/mL. It also gave an MIC (Aspergillus niger) of 100 µg/mL (≈ 208 µM), an MIC (Proteus vulgaris) of 100 µg/mL (≈ 208 µM) and an MIC (Klebsiella pneumoniae) of 100 µg/mL (≈ 208 µM). The MIC [3] was 50 µg/mL (≈ 104 µM), the MIC (Bacillus cereus) was 25 µg/mL (≈ 52 µM) and the MIC (Pseudomonas aeruginosa) was 6.25 µg/mL (≈ 13 µM).
For CC(=O)Nc1ccc2nc(NC(=O)CSc3nnc(-c4cc5ccccc5oc4=O)o3)sc2c1, the “growth inhibition (GI)” value [1] was 96%, the MIC (Staphylococcus aureus) was 50 µg/mL (≈ 101 µM) and the MIC (Escherichia coli) was 100 µg/mL (≈ 203 µM). The MIC (Aspergillus clavatus) was 12.5 µg/mL (≈ 25.3 µM), the MIC (Aspergillus fumigatus) was > 100 µg/mL and the MIC (Shigella flexneri) was 100 µg/mL (≈ 203 µM). The MIC (Salmonella typhi) was 100 µg/mL (≈ 203 µM), the MIC (Candida albicans) was > 100 µg/mL and the MIC [2] was > 6.25 µg/mL. The MIC (Aspergillus niger) was 100 µg/mL (≈ 203 µM), the MIC (Proteus vulgaris) was > 100 µg/mL and the MIC (Klebsiella pneumoniae) was 100 µg/mL (≈ 203 µM). It also gave an MIC [3] of 100 µg/mL (≈ 203 µM), an MIC (Bacillus cereus) of 100 µg/mL (≈ 203 µM) and an MIC (Pseudomonas aeruginosa) of 12.5 µg/mL (≈ 25.3 µM).
O=C(CSc1nnc(-c2cc3ccccc3oc2=O)o1)Nc1ccc(F)cc1 was tested, and the “growth inhibition (GI)” value [1] was 99%, the MIC (Staphylococcus aureus) was 12.5 µg/mL (≈ 31.5 µM) and the MIC (Escherichia coli) was 50 µg/mL (≈ 126 µM). It also gave an MIC (Aspergillus clavatus) of 100 µg/mL (≈ 252 µM), an MIC (Aspergillus fumigatus) of 50 µg/mL (≈ 126 µM) and an MIC (Shigella flexneri) of 50 µg/mL (≈ 126 µM). The MIC (Salmonella typhi) was 50 µg/mL (≈ 126 µM), the MIC (Candida albicans) was 25 µg/mL (≈ 62.9 µM) and the MIC [2] was > 6.25 µg/mL. It also gave an MIC (Aspergillus niger) of 50 µg/mL (≈ 126 µM), an MIC (Proteus vulgaris) of 100 µg/mL (≈ 252 µM) and an MIC (Klebsiella pneumoniae) of 100 µg/mL (≈ 252 µM). For the same compound, the MIC [3] was 25 µg/mL (≈ 62.9 µM), the MIC (Bacillus cereus) was 50 µg/mL (≈ 126 µM) and the MIC (Pseudomonas aeruginosa) was 100 µg/mL (≈ 252 µM).
For O=C(CSc1nnc(-c2cc3ccccc3oc2=O)o1)Nc1ccc(I)cc1, the “growth inhibition (GI)” value [1] was 99%, the MIC (Staphylococcus aureus) was 100 µg/mL (≈ 198 µM) and the MIC (Escherichia coli) was 100 µg/mL (≈ 198 µM). The MIC (Aspergillus clavatus) was 100 µg/mL (≈ 198 µM), the MIC (Aspergillus fumigatus) was 100 µg/mL (≈ 198 µM) and the MIC (Shigella flexneri) was 100 µg/mL (≈ 198 µM). For the same compound, the MIC (Salmonella typhi) was > 100 µg/mL, the MIC (Candida albicans) was 100 µg/mL (≈ 198 µM) and the MIC [2] was > 6.25 µg/mL. It also gave an MIC (Aspergillus niger) of 100 µg/mL (≈ 198 µM), an MIC (Proteus vulgaris) of 50 µg/mL (≈ 99 µM) and an MIC (Klebsiella pneumoniae) of 100 µg/mL (≈ 198 µM). For the same compound, the MIC [3] was 12.5 µg/mL (≈ 24.7 µM), the MIC (Bacillus cereus) was 100 µg/mL (≈ 198 µM) and the MIC (Pseudomonas aeruginosa) was 100 µg/mL (≈ 198 µM).
O=C(O)c1cn(C2CC2)c2cc(N3CCNCC3)c(F)cc2c1=O [CIPROFLOXACIN] showed an MIC (Staphylococcus aureus) of 1.56 µg/mL (≈ 4.71 µM), an MIC (Shigella flexneri) of 1.56 µg/mL (≈ 4.71 µM) and an MIC (Salmonella typhi) of 0.39 µg/mL (≈ 1.18 µM). The MIC (Proteus vulgaris) was 0.39 µg/mL (≈ 1.18 µM), the MIC (Klebsiella pneumoniae) was 0.78 µg/mL (≈ 2.35 µM) and the MIC (Bacillus cereus) was 0.39 µg/mL (≈ 1.18 µM). For the same compound, the MIC (Pseudomonas aeruginosa) was 0.78 µg/mL (≈ 2.35 µM).
With CC(=O)N1CCN(c2ccc(OCC3COC(Cn4ccnc4)(c4ccc(Cl)cc4Cl)O3)cc2)CC1 (stereo unspecified) [KETOCONAZOLE] the MIC (Aspergillus clavatus) was 0.78 µg/mL (≈ 1.47 µM), the MIC (Aspergillus fumigatus) was 0.78 µg/mL (≈ 1.47 µM) and the MIC (Candida albicans) was 1.56 µg/mL (≈ 2.94 µM). The MIC (Aspergillus niger) was 1.56 µg/mL (≈ 2.94 µM).
